Values after ≈ are worked out from the molar mass of the structure shown. Where two headings read alike, the source gives them in different places.
Assays:
K. pneumoniae ATCC 13883 = assay: micro-dilution broth MIC; format: cell-based, Klebsiella pneumoniae
Procedure: (§1) The cytotoxic effect of the compounds was evaluated using glioblastoma (T98G), neuroblastoma (SK-N-AS) and lung adenocarcinoma (A549) cell lines and human normal skin fibroblasts (CCD-1059Sk). T98G and SK-N-AS cells were cultured in DMEM, high glucose; A549 cells were cultured in DMEM/F12; and CCD-1059Sk cells were cultured in MEM. All media were supplemented with 10% FBS, 100 U/mL of penicillin and […] of streptomycin (PenStrep). Cells were incubated at 37 °C in a humidified atmosphere of 5% CO2. Stock solutions were prepared by dissolving the compounds in sterile dimethyl sulfoxide (DMSO) to obtain the concentration of 50 mg/mL. The cells were seeded into 96-well sterile plates (Nunc) at a density of 1 × 10^5 cells/mL. After 24 h of incubation, the medium was removed from each well, and then cells were incubated for the next 24 h with different concentrations of the tested compounds (1–100 µg/mL) in respective medium containing 2% FBS. Cytotoxicity of the compounds was evaluated using the MTT assay, which is based on the conversion of 3-(4,5-dimethylthiazol-2-yl)-2,5-diphenyltetrazolium bromide (MTT) into dark-blue formazan crystals. Briefly, after 24 h incubation of cells with varying concentrations of the tested compounds, all culture media were removed from the plates. Cells were washed with PBS, and then 100 µL of medium containing 10% MTT solution (5 mg/mL) was added to each well. After 3 h incubation, 100 µL (per well) of 10% SDS buffer solution was added to solubilize formazan crystals. After overnight incubation, the absorbance was measured at 570 nm using a microplate reader (Epoch, BioTek Instruments). Experiments were repeated twice, and the measurements in each experiment were run in triplicate. The viability of the investigated cells was expressed as a percentage of the viability of the untreated cells, and the results were transformed into IC50 values (expressed as mean ± SD). […] The complexes were screened for antibacterial and antifungal activities by micro-dilution broth method using Mueller–Hinton broth for growth of bacteria or Mueller–Hinton broth with 2% glucose for growth of fungi. Minimal inhibitory concentrations (MICs) of the tested derivatives were evaluated for the panel of the reference microorganisms from the American Type Culture Collection (ATCC), including Gram-negative bacteria (Escherichia coli ATCC 25922, Salmonella Typhimurium ATCC14028, Klebsiella pneumoniae ATCC 13883, Pseudomonas aeruginosa ATCC 9027, Proteus mirabilis ATCC 12453), Gram-positive bacteria (Staphylococcus aureus ATCC 25923, Staphylococcus epidermidis ATCC 12228, Micrococcus luteus ATCC 10240, Enterococcus faecalis ATCC 29212, Bacillus subtilis ATCC 6633, Bacillus cereus ATCC 10876) and fungi (Candida albicans ATCC 10231, Candida parapsilosis ATCC 22019, C. glabrata ATCC 90030).

M. luteus ATCC 10240 = assay: micro-dilution broth MIC; format: cell-based, Micrococcus luteus
Procedure: as §1

[1] = test system: lung adenocarcinoma (A549) cell line; assay: MTT cytotoxicity assay, A549; format: cell-based, human; conditions: MTT assay after 24 h incubation; for IC50: Homo sapiens, A549, read-out: IC50 ± SD, A549
Procedure: as §1

E. faecalis ATCC 29212 = assay: micro-dilution broth MIC; format: cell-based, Enterococcus faecalis
Procedure: as §1

E. coli ATCC 25922 = assay: micro-dilution broth MIC; format: cell-based, Escherichia coli
Procedure: as §1

[2] = test system: human normal skin fibroblasts (CCD-1059Sk); assay: MTT cytotoxicity assay, normal fibroblasts; format: cell-based; conditions: MTT assay after 24 h incubation, normal cells; for IC50: Homo sapiens, CCD-1059Sk, read-out: IC50 ± SD, CCD-1059-Sk
Procedure: as §1

B. cereus ATCC 10876 = assay: micro-dilution broth MIC; format: cell-based, Bacillus cereus
Procedure: as §1

P. mirabilis ATCC 12453 = assay: micro-dilution broth MIC; format: cell-based, Proteus mirabilis
Procedure: as §1

S. aureus ATCC 25923 = assay: micro-dilution broth MIC; format: cell-based, Staphylococcus aureus
Procedure: as §1

B. subtilis ATCC 6633 = assay: micro-dilution broth MIC; format: cell-based, Bacillus subtilis
Procedure: as §1

[3] = test system: S. typhimurium ATCC 14028; assay: micro-dilution broth MIC; format: cell-based, Salmonella Typhimurium; conditions: Gram-negative
Procedure: as §1

[4] = test system: C. parapsilosis ATCC 22019; assay: micro-dilution broth MIC; format: cell-based, Candida parapsilosis
Procedure: as §1

[5] = test system: glioblastoma (T98G) cell line; assay: MTT cytotoxicity assay, T98G; format: cell-based; conditions: MTT assay after 24 h incubation; for IC50: Homo sapiens, T98G, read-out: IC50 ± SD, T98G
Procedure: as §1

P. aeruginosa ATCC 9027 = assay: micro-dilution broth MIC; format: cell-based, Pseudomonas aeruginosa
Procedure: as §1

[6] = test system: S. epidermidis ATCC 12228; assay: micro-dilution broth MIC; format: cell-based, Staphylococcus epidermidis
Procedure: as §1

C. glabrata ATCC 2091 = assay: micro-dilution broth MIC; format: cell-based
C. albicans ATCC 102231 = assay: micro-dilution broth MIC; format: cell-based, Candida albicans
Procedure: as §1

[7] = test system: neuroblastoma (SK-N-AS) cell line; assay: MTT cytotoxicity assay, SK-N-AS; format: cell-based, human; conditions: MTT assay after 24 h incubation; for IC50: Homo sapiens, SK-N-AS, read-out: IC50 ± SD, SK-N-AS
Procedure: as §1

[8] = Klebsiella pneumoniae, ATCC13883, Gram-negative, read-out: MIC
[9] = Micrococcus luteus, ATCC10240, M. luteus ATCC 10240, Gram-positive, read-out: MIC
[10] = Enterococcus faecalis, ATCC29212, E. faecalis ATCC 29212, Gram-positive, read-out: MIC
[11] = Escherichia coli, ATCC25922, Gram-negative, read-out: MIC
[12] = Bacillus cereus, ATCC10876, B. cereus ATCC 10876, Gram-positive, read-out: MIC
[13] = Proteus mirabilis, ATCC12453, Gram-negative, read-out: MIC
[14] = Staphylococcus aureus, ATCC25923, S. aureus ATCC 25923, Gram-positive, read-out: MIC
[15] = Bacillus subtilis, ATCC6633, B. subtilis ATCC 6633, Gram-positive, read-out: MIC
[16] = Salmonella enterica, read-out: MIC
[17] = Lodderomyces parapsilosis, ATCC22019, yeast, read-out: MIC
[18] = Pseudomonas aeruginosa, ATCC9027, Gram-negative, read-out: MIC
[19] = Staphylococcus epidermidis, ATCC12228, S. epidermidis ATCC 12228, Gram-positive, read-out: MIC
[20] = Nakaseomyces glabratus, ATCC2091, yeast, read-out: MIC
[21] = Candida albicans, ATCC102231, yeast, read-out: MIC

Row | SMILES | MIC (K. pneumoniae ATCC 13883; [8]) [mg/L] | MIC (M. luteus ATCC 10240; [9]) [mg/L] | MIC (E. faecalis ATCC 29212; [10]) [mg/L] | MIC (E. coli ATCC 25922; [11]) [mg/L] | MIC (B. cereus ATCC 10876; [12]) [mg/L] | MIC (P. mirabilis ATCC 12453; [13]) [mg/L] | MIC (S. aureus ATCC 25923; [14]) [mg/L] | MIC (B. subtilis ATCC 6633; [15]) [mg/L] | MIC [3, 16] [mg/L] | MIC [4, 17] [mg/L] | MIC (P. aeruginosa ATCC 9027; [18]) [mg/L] | MIC [6, 19] [mg/L] | MIC (C. glabrata ATCC 2091; [20]) [mg/L] | MIC (C. albicans ATCC 102231; [21]) [mg/L] | IC50 [1] [mg/L] | IC50 [2] [mg/L] | IC50 [5] [mg/L] | IC50 [7] [mg/L] | other results
1 | [Cl][Zn][Cl].[Cl][Zn][Cl].c1cnc2[nH]c(-c3ccncc3)nc2c1.c1cnc2[nH]c(-c3ccncc3)nc2c1 [Complex C2] |  |  |  |  |  |  |  |  |  |  |  |  |  |  |  |  |  |  | MIC (K. pneumoniae ATCC 13883; Gram-negative): 1000 mg/L; MIC (M. luteus ATCC 10240; M. luteus ATCC 10240, Gram-positive): 250 mg/L; IC50 ± SD, A549 [1]: 34.44 ± 0.75 mg/L; MIC (E. faecalis ATCC 29212; E. faecalis ATCC 29212, Gram-positive): 1000 mg/L; MIC (E. coli ATCC 25922; Gram-negative): 1000 mg/L; IC50 ± SD, CCD-1059-Sk [2]: 27.27 ± 1.05 mg/L; MIC (B. cereus ATCC 10876; B. cereus ATCC 10876, Gram-positive): 500 mg/L; MIC (P. mirabilis ATCC 12453; Gram-negative): 1000 mg/L; MIC (S. aureus ATCC 25923; S. aureus ATCC 25923, Gram-positive): 500 mg/L; MIC (B. subtilis ATCC 6633; B. subtilis ATCC 6633, Gram-positive): 500 mg/L; MIC [3]: 1000 mg/L; MIC ([4]; yeast): >1000 mg/L; IC50 ± SD, T98G [5]: 24.29 ± 0.11 mg/L; MIC (P. aeruginosa ATCC 9027; Gram-negative): >1000 mg/L; MIC ([6]; S. epidermidis ATCC 12228, Gram-positive): 500 mg/L; MIC (C. glabrata ATCC 2091; yeast): >1000 mg/L; MIC (C. albicans ATCC 102231; yeast): 1000 mg/L; IC50 ± SD, SK-N-AS [7]: 33.72 ± 0.39 mg/L
2 | CN[C@H](CC(C)C)C(=O)N[C@H]1C(=O)N[C@@H](CC(N)=O)C(=O)N[C@H]2C(=O)N[C@H]3C(=O)N[C@H](C(=O)N[C@H](C(=O)O)c4cc(O)cc(O)c4-c4cc3ccc4O)[C@H](O)c3ccc(c(Cl)c3)Oc3cc2cc(c3O[C@@H]2O[C@H](CO)[C@@H](O)[C@H](O)[C@H]2O[C@H]2C[C@](C)(N)[C@H](O)[C@H](C)O2)Oc2ccc(cc2Cl)[C@H]1O [Van, Vancomycin, reference compound] |  |  |  |  |  |  |  |  |  |  |  |  |  |  |  |  |  |  | MIC (M. luteus ATCC 10240; Micrococcus luteus, ATCC10240): 0.12 mg/L (≈ 0.0828 µM); MIC (E. faecalis ATCC 29212; Enterococcus faecalis, ATCC29212): 1.95 mg/L (≈ 1.35 µM); MIC (B. cereus ATCC 10876; Bacillus cereus, ATCC10876): 0.98 mg/L (≈ 0.676 µM); MIC (S. aureus ATCC 25923; Staphylococcus aureus, ATCC25923): 0.98 mg/L (≈ 0.676 µM); MIC (B. subtilis ATCC 6633; Bacillus subtilis, ATCC6633): 0.24 mg/L (≈ 0.166 µM); MIC ([6]; Staphylococcus epidermidis, ATCC12228): 0.98 mg/L (≈ 0.676 µM)
3 | c1cc(-c2nc3ccncc3[nH]2)ccn1 [Complex L1] | > 1000 | 500 | > 1000 | > 1000 | > 1000 | > 1000 | > 1000 | > 1000 | > 1000 | > 1000 | > 1000 | > 1000 | > 1000 | > 1000 | > 100 | > 100 | 41.2 ± 2.3 | > 100 | 

Now from value to compound, other results behind:

Row | MIC (K. pneumoniae ATCC 13883; [8]) [mg/L] | MIC (M. luteus ATCC 10240; [9]) [mg/L] | MIC (E. faecalis ATCC 29212; [10]) [mg/L] | MIC (E. coli ATCC 25922; [11]) [mg/L] | MIC (B. cereus ATCC 10876; [12]) [mg/L] | MIC (P. mirabilis ATCC 12453; [13]) [mg/L] | MIC (S. aureus ATCC 25923; [14]) [mg/L] | MIC (B. subtilis ATCC 6633; [15]) [mg/L] | MIC [3, 16] [mg/L] | MIC [4, 17] [mg/L] | MIC (P. aeruginosa ATCC 9027; [18]) [mg/L] | MIC [6, 19] [mg/L] | MIC (C. glabrata ATCC 2091; [20]) [mg/L] | MIC (C. albicans ATCC 102231; [21]) [mg/L] | SMILES | IC50 [1] [mg/L] | IC50 [2] [mg/L] | IC50 [5] [mg/L] | IC50 [7] [mg/L] | other results
4 | > 1000 | > 1000 | 1000 | > 1000 | 1000 | > 1000 | > 1000 | 1000 | > 1000 | 1000 | > 1000 | 1000 | > 1000 | 500 | Brc1cnc2[nH]c(-c3cccnc3)nc2c1 [Complex L4] | > 100 | > 100 | > 100 | > 100 | 
5 | > 1000 | 250 | 1000 | 1000 | 250 | 1000 | 1000 | 500 | 1000 | > 1000 | > 1000 | 1000 | > 1000 | 1000 | c1cnc2[nH]c(-c3ccncc3)nc2c1 [Complex L2] | 43.1 ± 2.17 | > 100 | 35 ± 1.44 | 81.3 ± 3.31 | 
